ChEMBL document CHEMBL1201862, “PubChem BioAssay data set” (2004)
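96-well plates; 48 h exposure; 5 concentrations. Endpoints by linear interpolation between flanking doses. Not reached: highest tested concentration assigned. GI50 marks 50% less growth.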 Calls of active or inactive are those of the source. Cut-off read from the data, not from the text of the source: active = GI50 up to about 1.1 µM and inactive = higher.

Tests used:
Experiment in all cases: DTP human tumour cell line panel, 48 h
[1] = test system: EKVX
[2] = test system: HCC 2998
[3] = test system: HOP-92
[4] = test system: IGROV-1
[5] = test system: LOX IMVI
[6] = test system: M14
[7] = test system: NCI-H226
[8] = test system: NCI-H23
[9] = test system: OVCAR-8
[10] = test system: RXF 393
[11] = test system: SF-268
[12] = test system: SF-295
[13] = test system: SK-MEL-28
[14] = test system: SK-MEL-5
[15] = test system: SK-OV-3
[16] = test system: SNB-19
[17] = test system: SNB-75
[18] = test system: TK-10
[19] = test system: UACC-257

Row | Structure (SMILES) | GI50 [1] | GI50 [2] | GI50 [3] | GI50 [4] | GI50 [5] | GI50 [6] | GI50 [7] | GI50 [8] | GI50 [9] | GI50 [10] | GI50 [11] | GI50 [12] | GI50 [13] | GI50 [14] | GI50 [15] | GI50 [16] | GI50 [17] | GI50 [18] | GI50 [19]
1 | c1coc(C2=Nc3cccc4cccc(c34)N2)c1 | 55.2 µM (inactive) | 34.9 µM (inactive) | 25.5 µM (inactive) | > 100 µM (inactive) | 41.9 µM (inactive) | 25.4 µM (inactive) | > 100 µM (inactive) | 44.8 µM (inactive) | 39.3 µM (inactive) | 25.9 µM (inactive) | 68.2 µM (inactive) | 34 µM (inactive) | 72.9 µM (inactive) | 34.9 µM (inactive) | 98.4 µM (inactive) | > 100 µM (inactive) | 65.5 µM (inactive) | > 100 µM (inactive) | 41.4 µM (inactive)
2 | Cc1cc2c3c(c1)S(=O)(=O)c1cc(Cl)ccc1N3CCC2 | > 100 µM (inactive) | > 100 µM (inactive) | > 100 µM (inactive) | 84.3 µM (inactive) | > 100 µM (inactive) | > 100 µM (inactive) | > 100 µM (inactive) | – | > 100 µM (inactive) | 55.2 µM (inactive) | > 100 µM (inactive) | 56 µM (inactive) | > 100 µM (inactive) | > 100 µM (inactive) | > 100 µM (inactive) | > 100 µM (inactive) | 58.5 µM (inactive) | > 100 µM (inactive) | 60.8 µM (inactive)
3 | O=C1/C(=C/c2cccc(O)c2)COc2ccccc21 | 16.5 µM (inactive) | 0.029 µM (active) | 16.9 µM (inactive) | 7.96 µM (inactive) | 1.95 µM (inactive) | 4.27 µM (inactive) | 11.4 µM (inactive) | 5.74 µM (inactive) | 7.38 µM (inactive) | 10.1 µM (inactive) | 18.4 µM (inactive) | 15.7 µM (inactive) | 4.45 µM (inactive) | 9.2 µM (inactive) | 21.3 µM (inactive) | 7.11 µM (inactive) | 15.5 µM (inactive) | 15.4 µM (inactive) | 2.64 µM (inactive)
4 | Cc1ccc(C(CCO)CCO)nc1 | > 100 µM (inactive) | > 100 µM (inactive) | > 100 µM (inactive) | – | > 100 µM (inactive) | > 100 µM (inactive) | > 100 µM (inactive) | > 100 µM (inactive) | > 100 µM (inactive) | > 100 µM (inactive) | > 100 µM (inactive) | > 100 µM (inactive) | > 100 µM (inactive) | > 100 µM (inactive) | > 100 µM (inactive) | > 100 µM (inactive) | > 100 µM (inactive) | > 100 µM (inactive) | > 100 µM (inactive)
5 | CN(C)CCCNc1ccnc2cccc([N+](=O)[O-])c12 | 13.6 µM (inactive) | 13.3 µM (inactive) | 10.6 µM (inactive) | 12.1 µM (inactive) | 13.6 µM (inactive) | 7.05 µM (inactive) | 15.3 µM (inactive) | 5.9 µM (inactive) | 22 µM (inactive) | 25.5 µM (inactive) | 16.4 µM (inactive) | 13.3 µM (inactive) | 14.3 µM (inactive) | 10.4 µM (inactive) | 2.52 µM (inactive) | 19.6 µM (inactive) | 24.1 µM (inactive) | 15.7 µM (inactive) | 19.1 µM (inactive)
6 | O=C1c2cc([N+](=O)[O-])ccc2-c2cccc(F)c21 | 18.9 µM (inactive) | 80.2 µM (inactive) | > 100 µM (inactive) | 40.7 µM (inactive) | 60 µM (inactive) | > 100 µM (inactive) | 96.4 µM (inactive) | > 100 µM (inactive) | 43.1 µM (inactive) | 42.9 µM (inactive) | 44.3 µM (inactive) | > 100 µM (inactive) | > 100 µM (inactive) | 70.6 µM (inactive) | > 100 µM (inactive) | > 100 µM (inactive) | > 100 µM (inactive) | > 100 µM (inactive) | 65.3 µM (inactive)
7 | CC1=CC(=O)/C(=C/NC(=S)Nc2ccccc2)C(=O)O1 | > 100 µM (inactive) | > 100 µM (inactive) | > 100 µM (inactive) | > 100 µM (inactive) | > 100 µM (inactive) | > 100 µM (inactive) | > 100 µM (inactive) | > 100 µM (inactive) | > 100 µM (inactive) | 40.7 µM (inactive) | > 100 µM (inactive) | > 100 µM (inactive) | – | > 100 µM (inactive) | > 100 µM (inactive) | > 100 µM (inactive) | > 100 µM (inactive) | > 100 µM (inactive) | > 100 µM (inactive)
8 | COc1cc2ncnc(NS(=O)(=O)c3cc4ccccc4s3)c2cc1OC | 75 µM (inactive) | > 100 µM (inactive) | 34 µM (inactive) | 81.5 µM (inactive) | > 100 µM (inactive) | > 100 µM (inactive) | > 100 µM (inactive) | 93.1 µM (inactive) | > 100 µM (inactive) | 29.8 µM (inactive) | > 100 µM (inactive) | > 100 µM (inactive) | – | > 100 µM (inactive) | > 100 µM (inactive) | > 100 µM (inactive) | 47.8 µM (inactive) | > 100 µM (inactive) | > 100 µM (inactive)
9 | O=C(NC(Cc1ccccc1)(Cc1ccc(O)cn1)C(=O)O)c1ccccc1 (centres undefined) | 55.6 µM (inactive) | 99.1 µM (inactive) | 33.8 µM (inactive) | > 100 µM (inactive) | > 100 µM (inactive) | > 100 µM (inactive) | 83 µM (inactive) | > 100 µM (inactive) | > 100 µM (inactive) | > 100 µM (inactive) | > 100 µM (inactive) | 92 µM (inactive) | > 100 µM (inactive) | > 100 µM (inactive) | > 100 µM (inactive) | > 100 µM (inactive) | 69.2 µM (inactive) | > 100 µM (inactive) | > 100 µM (inactive)
10 | Nc1nc(Cl)cc(NCC2(CO)CC(Cc3ccccc3)C2)n1 (centres undefined) | 3.35 µM (inactive) | 30.7 µM (inactive) | 36.6 µM (inactive) | 48.4 µM (inactive) | 4.37 µM (inactive) | 16.2 µM (inactive) | 13.2 µM (inactive) | 34.4 µM (inactive) | 42.2 µM (inactive) | 20.4 µM (inactive) | 21.6 µM (inactive) | 11.3 µM (inactive) | 60.4 µM (inactive) | 0.417 µM (active) | 52 µM (inactive) | 25.5 µM (inactive) | 28.6 µM (inactive) | 25.6 µM (inactive) | 31.5 µM (inactive)
11 | COc1cc(CCNC2=CC(=O)c3cccnc3C2=O)ccc1O | 3.08 µM (inactive) | 1.73 µM (inactive) | 5.48 µM (inactive) | 1.44 µM (inactive) | 0.284 µM (active) | 1.49 µM (inactive) | 1.84 µM (inactive) | 0.809 µM (active) | 2.26 µM (inactive) | 0.955 µM (active) | 2.07 µM (inactive) | 1.32 µM (inactive) | 1.22 µM (inactive) | 0.385 µM (active) | 2.52 µM (inactive) | 1.61 µM (inactive) | 0.83 µM (active) | 7.96 µM (inactive) | 0.869 µM (active)
12 | CC(=O)OC[C@@]12C[C@H]3C(=O)C(C)(C)C[C@H]3[C@]1(C)[C@@H](OC(C)=O)[C@]1(O)[C@H]([C@@H](OC(=O)c3ccccc3)[C@@H](C)[C@H]1OC(C)=O)[C@H]2OC(C)=O | > 20 µM (inactive) | > 20 µM (inactive) | > 20 µM (inactive) | > 20 µM (inactive) | > 20 µM (inactive) | > 20 µM (inactive) | > 20 µM (inactive) | > 20 µM (inactive) | > 20 µM (inactive) | > 20 µM (inactive) | > 20 µM (inactive) | 15.3 µM (inactive) | – | > 20 µM (inactive) | > 20 µM (inactive) | > 20 µM (inactive) | > 20 µM (inactive) | > 20 µM (inactive) | > 20 µM (inactive)
13 | COC(=O)C(Cc1ccccc1I)C1=CCC2(CC1)OCCO2 (centres undefined) | 47.6 µM (inactive) | 31.6 µM (inactive) | 28.2 µM (inactive) | 41 µM (inactive) | 23.3 µM (inactive) | 22.3 µM (inactive) | 79.3 µM (inactive) | 26.4 µM (inactive) | 35.2 µM (inactive) | 14.2 µM (inactive) | 41.3 µM (inactive) | 29.2 µM (inactive) | 48.9 µM (inactive) | 16.8 µM (inactive) | 36.9 µM (inactive) | 25.4 µM (inactive) | 21.2 µM (inactive) | 31.6 µM (inactive) | 27.1 µM (inactive)
14 | O=[N+]([O-])c1ccc(Sc2c3ccccc3nc3ccccc23)nc1 | 17 µM (inactive) | 15.7 µM (inactive) | 1.95 µM (inactive) | 16.7 µM (inactive) | 2.24 µM (inactive) | 3.22 µM (inactive) | 16.3 µM (inactive) | 6.84 µM (inactive) | 22 µM (inactive) | 3.28 µM (inactive) | 8.71 µM (inactive) | 26.1 µM (inactive) | 4.75 µM (inactive) | 16.7 µM (inactive) | 13.2 µM (inactive) | 18.4 µM (inactive) | 15.6 µM (inactive) | 2.96 µM (inactive) | 7.06 µM (inactive)
15 | CCOc1cc2c(OCc3ccccc3)cc3c4cc(OC)c(OC)cc4c[n+](C)c3c2cc1OC | 17.8 µM (inactive) | 1.57 µM (inactive) | 0.361 µM (active) | – | 2.07 µM (inactive) | 2.03 µM (inactive) | 1.5 µM (inactive) | 2.73 µM (inactive) | 2.19 µM (inactive) | 2.4 µM (inactive) | 0.492 µM (active) | 8.57 µM (inactive) | 1.36 µM (inactive) | 1.38 µM (inactive) | 3.02 µM (inactive) | 0.385 µM (active) | 0.442 µM (active) | 10.3 µM (inactive) | 1.62 µM (inactive)
